This passage reports IC50 results from patent publication US20080306044A1, “SPIROBENZOAZEPANES AS VASOPRESSIN ANTAGONISTS” (priority 2007, published 2008).

One test has as its target human V2 receptor (Homo sapiens, UniProt P30518). Put plainly: V2 vasopressin receptor functional activity (cAMP accumulation). Type of test: cell-based. Details: expressed in transfected cells; host or cells: HEK-293. To be noted: V2-HEK cells; block of vasopressin-stimulated cAMP accumulation; read-out: V2 (functional) IC50. Here is the method: The V2 receptor is also a G-protein coupled receptor which when activated induces an increase in cAMP turnover. Antagonism against the V2 receptor is determined by measuring cAMP accumulation in transfected HEK-293 cells expressing the human V-2 receptor (V2-HEK cells). Compounds are tested for their ability to block the stimulatory effects of vasopressin on cAMP accumulation. The cell content of cAMP is measured by radioimmunoassay using NEN flashplates.
For orientation: Changes in cAMP serve as a functional read-out for many G protein-coupled receptors.

In another test the target is T1, human V1a receptor (Homo sapiens, UniProt P37288).
T1 construct: expressed in transfected cells
T1 sequence (P37288 whole entry): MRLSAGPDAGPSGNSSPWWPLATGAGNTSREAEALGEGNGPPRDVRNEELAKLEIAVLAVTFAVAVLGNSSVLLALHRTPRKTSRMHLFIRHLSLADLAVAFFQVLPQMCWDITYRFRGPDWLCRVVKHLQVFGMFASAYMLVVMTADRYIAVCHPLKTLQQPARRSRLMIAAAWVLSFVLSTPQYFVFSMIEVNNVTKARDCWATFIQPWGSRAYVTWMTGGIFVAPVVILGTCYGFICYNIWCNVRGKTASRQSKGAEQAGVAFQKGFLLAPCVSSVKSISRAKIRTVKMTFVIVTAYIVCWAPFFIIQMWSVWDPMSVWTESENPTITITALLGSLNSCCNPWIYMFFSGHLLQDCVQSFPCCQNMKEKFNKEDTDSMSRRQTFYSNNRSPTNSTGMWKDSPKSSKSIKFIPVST
Put plainly: cell-based. The procedure:
The V1a receptor is a G-protein coupled receptor, which upon activation triggers an increase in intracellular calcium mobilization. To evaluate compounds for their functional V1a receptor activity, HEK-293 cells were transfected with the human V1a receptor (V1a-HEK cells). HEK-293 cells were grown in DMEM (Dulbecco's modified Eagle Media) supplemented with 10% FBS and glutamine. HEK-cells were passed biweekly by trypsinization and seeded into 96 well plates at 33,000 cells per well. HEK-293 cells were transfected with human V1a receptor DNA using DMRIE-C reagent from Life Technologies (Carlsbad, Calif.). Stable lines were generated by selecting cells grown in culture media containing geneticin. After growing in Packard Clear-View black 96 well plates for 4-6 days, V1a-HEK cells were loaded with the calcium-sensitive fluorescence dye, FLUO-3 AM. Changes in intracellular calcium mobilization were measured by quantitating intracellular fluorescence using FLIPR (Fluorometric Imaging Plate Reader; Molecular Devices, Sunnyvale, Calif.). Test compounds were first added to the cells and the resulting changes in fluorescence measured to detect receptor agonistic activity. Five minutes later the cells were challenged with vasopressin to test compounds for their antagonistic activity. Receptor antagonists inhibit the ability of vasopressin to stimulate increases in intracellular fluorescence.

The mark [1] stands for this setting: V1 (functional) IC50, V1a-HEK cells, inhibition of vasopressin-stimulated intracellular calcium mobilization.

SMILES strings stand for the structures. Where two headings read alike, the source gives them in different places.

By IC50 is commonly meant the concentration that gives 50% inhibition.

human V2 receptor, sequence (P30518 whole entry): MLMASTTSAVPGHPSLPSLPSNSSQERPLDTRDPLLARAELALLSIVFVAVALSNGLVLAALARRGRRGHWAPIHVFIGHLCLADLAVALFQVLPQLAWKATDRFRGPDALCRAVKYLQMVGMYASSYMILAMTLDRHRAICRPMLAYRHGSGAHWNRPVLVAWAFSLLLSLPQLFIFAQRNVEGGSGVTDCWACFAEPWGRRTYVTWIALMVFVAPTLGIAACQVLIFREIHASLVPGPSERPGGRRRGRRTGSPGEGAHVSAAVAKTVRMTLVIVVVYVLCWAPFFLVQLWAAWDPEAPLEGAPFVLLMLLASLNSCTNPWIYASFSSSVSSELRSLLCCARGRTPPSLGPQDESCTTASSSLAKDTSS

For the compound `COc1cc(C(=O)N2CC[C@@]3(CCC(NS(N)(=O)=O)C3)Cc3ccccc32)ccc1NC(=O)c1cc(F)ccc1Cl` (stereo partly drawn) [Cpd 19, (1R)-3-aminosulfonylamino-N-[3-methoxy-4-(2-chloro-5-fluoro-phenylcarbonyl)amino-phenylcarbonyl]-spiro[cyclopentane-1,4′-benzo[b]azepane]], the IC50 on human V2 receptor worked out at 120 nM; at human V1a receptor (setting [1]), 100 nM.

Turning to `COc1cc(C(=O)N2CC[C@@]3(CCC(N)C3)Cc3ccccc32)ccc1NC(=O)c1cc(F)ccc1Cl` (stereo partly drawn) [Cpd 17, (1R)-3-amino-N-[3-methoxy-4-(2-chloro-5-fluoro-phenylcarbonyl)amino-phenylcarbonyl]-spiro[cyclopentane-1,4′-benzo[b]azepane]], the IC50 amounted to 1100 nM at human V2 receptor and 730 nM against human V1a receptor.

As to `COc1cc(C(=O)N2CC[C@@]3(CCC(=CC(N)=O)C3)Cc3ccccc32)ccc1NC(=O)c1cc(F)ccc1Cl` [Cpd 32, (R)-3-aminocarbonylmethylene-N-[3-methoxy-4-(2-chloro-5-fluoro-phenylcarbonyl)amino-phenylcarbonyl]-spiro[cyclopentane-1,4′-benzo[b]azepane]], the figures for the half-inhibitory concentration (IC50) on human V2 receptor and at human V1a receptor (setting [1]) were 34 nM and 170 nM, respectively.

On to `CNC(=O)C=C1CC[C@@]2(CCN(C(=O)c3ccc(NC(=O)c4cc(F)ccc4Cl)c(OC)c3)c3ccccc3C2)C1` [Cpd 30, (R)—N-[3-methoxy-4-(2-chloro-5-fluoro-phenylcarbonyl)amino-phenylcarbonyl]-3-methylaminocarbonylmethylene-spiro[cyclopentane-1,4′-benzo[b]azepane]], for which the results for the IC50 at human V2 receptor and at human V1a receptor (setting [1]) were 90 nM and 210 nM, respectively.

With `COc1cc(C(=O)N2CC[C@]3(C=C(C4=NCCN4)CC3)Cc3ccccc32)ccc1NC(=O)c1cc(F)ccc1Cl` [Cpd 12, (R)-N-[3-methoxy-4-(2-chloro-5-fluoro-phenylcarbonyl)amino-phenylcarbonyl]-3-(4,5-dihydro-1H-imidazol-2-yl)-spiro[cyclopent-2-ene-1,4′-benzo[b]azepane]], the IC50 on human V2 receptor was found to be 1100 nM; on human V1a receptor (V1a-HEK cells, inhibition of vasopressin-stimulated intracellular calcium mobilization, read-out: V1 (functional) IC50), 320 nM.

On to `COc1cc(C(=O)N2CC[C@@]3(CCC(=CC(=O)NCCN(C)C)C3)Cc3ccccc32)ccc1NC(=O)c1cc(F)ccc1Cl` [Cpd 31, (R)-N-[3-methoxy-4-(2-chloro-5-fluoro-phenylcarbonyl)amino-phenylcarbonyl]-3-(2-dimethylamino-ethyl)aminocarbonylmethylene-spiro[cyclopentane-1,4′-benzo[b]azepane]], for which the IC50 at human V2 receptor stood at 140 nM; at human V1a receptor, 150 nM.

As to `COc1cc(C(=O)N2CC[C@@]3(CC[C@@H](NS(N)(=O)=O)C3)Cc3ccccc32)ccc1NC(=O)c1cc(F)ccc1Cl` [Cpd 35, (1R,3R)-3-aminosulfonylamino-N-[3-methoxy-4-(2-chloro-5-fluoro-phenylcarbonyl)amino-phenylcarbonyl]-spiro[cyclopentane-1,4′-benzo[b]azepane]], the IC50 amounted to 44 nM at human V2 receptor and 78 nM on human V1a receptor (setting [1]).

In the case of `NS(=O)(=O)NC(=O)C1=C[C@@]2(CC1)CCN(C(=O)c1ccc(NC(=O)c3cc(F)ccc3Cl)cc1)c1ccccc1C2` [Cpd 52, (R)-3-aminosulfonylaminocarbonyl-N-[4-(2-chloro-5-fluoro-phenylcarbonyl)amino-phenylcarbonyl]-spiro[cyclopent-2-ene-1,4′-benzo[b]azepane]], the half-inhibitory concentration (IC50) on human V2 receptor was 35 nM; on human V1a receptor, 77 nM.

On to `COc1cc(C(=O)N2CC[C@@]3(CCC(N4CCCC4)C3)Cc3ccccc32)ccc1NC(=O)c1cc(F)ccc1Cl` (stereo partly drawn) [Cpd 25, (1R)-N-[3-methoxy-4-(2-chloro-5-fluoro-phenylcarbonyl)amino-phenylcarbonyl]-3-(1H-pyrrolidin-1-yl)-spiro[cyclopentane-1,4′-benzo[b]azepane]], for which the half-inhibitory concentration (IC50) was 1000 nM on human V2 receptor and 810 nM at human V1a receptor.
